# Measured values taken from patent US20070117743A1, “New antitumoral compounds” (priority 2003, published 2007).
# Read-outs that look alike come from different tables or passages of the source. Where a SMILES comes first, the peptide text is derived from it. Bridges are numbered along the chain shown (N, C = ends). [ ]: non-standard residue; d: D form. The star is where a group is joined. Hexanoyl(4S-Me) = CC[C@H](C)CCC(=O)*; d(aIle) = CC[C@H](C)[C@@H](N)C(=O)O; d(aThr) = C[C@@H](O)[C@@H](N)C(=O)O; dTic = O=C(O)[C@H]1Cc2ccccc2CN1; Orn = NCCC[C@H](N)C(=O)O; Dhb = C/C=C(\N)C(=O)O
# Key:
# Format in all cases: cell-based, human
# IGROV-1 = test: SRB colorimetric assay of cell growth and viability, IGROV-1; conditions: 48 hours exposure, SRB
# A-549 = test: SRB colorimetric assay of cell growth and viability, A-549; conditions: 48 hours exposure; for GI50: read-out: GI50 A-549; for CC50: read-out: LC50 A-549
# DU-145 = test: SRB colorimetric assay of cell growth and viability, DU-145; conditions: 48 hours exposure, SRB
# LNCaP = test: SRB colorimetric assay of cell growth and viability, LNCaP; conditions: 48 hours exposure, SRB; for GI50: read-out: GI50 LN-caP; for CC50: read-out: LC50 LN-caP
# Text: The finality of this assay is to interrupt the growth of a “in vitro” tumor cell culture by means a continued exhibition of the cells to the sample to be testing.
# This form of the assay employs 96 well cell culture microplates of 9 mm diameter (Faircloth, 1988; Mosmann, 1983). Most of the cell lines are obtained from American Type Culture Collection (ATCC) derived from different human cancer types.
# Cells are maintained in RPMI 1640 10% FBS, supplemented with 0.1 g/l penicillin and 0.1 g/l streptomycin sulfate and then incubated at 37° C., 5% CO2 and 98% humidity. For the experiments, cells were harvested from subconfluent cultures using trypsin and resuspended in fresh medium before plating.
# Cells are seeded in 96 well microtiter plates, at 5×10^3 cells per well in aliquots of 195 μL medium, and they are allowed to attach to the plate surface by growing in drug free medium for 18 hours. Afterward, samples are added in aliquots of 5 μL in a ranging from 10 to 10^−8 μg/mL, dissolved in DMSO:EtOH:PBS (0.5:0.5:99). After 48 hours exposure, the antitumor effect are measured by the SRB methodology: cells are fixed by adding 50 μL of cold 50% (wt/vol) trichloroacetic acid (TCA) and incubating for 60 minutes at 4° C. Plates are washed with deionized water and dried. One hundred μL of SRB solution (0.4% wt/vol in 1% acetic acid) is added to each microtiter well and incubated for 10 minutes at room temperature. Unbound SRB is removed by washing with 1% acetic acid. Plates are air dried and bound stain is solubilized with Tris buffer. Optical densities are read on a automated spectrophotometric plate reader at a single wavelength of 490 nm.
# The values for mean+/− SD of data from triplicate wells are calculated. Some parameters for cellular responses can be calculated: GI=growth inhibition, TGI=total growth inhibition (cytostatic effect) and LC=cell killing (cytotoxic effect).
# LoVo = test: SRB colorimetric assay of cell growth and viability, LoVo; conditions: 48 hours exposure; for CC50: read-out: LC50 LOVO
# IGROV-ET = test: SRB colorimetric assay of cell growth and viability, IGROV-ET; conditions: 48 hours exposure, SRB; for CC50: read-out: LC50 IGROV-ET
# HT-29 = test: SRB colorimetric assay of cell growth and viability, HT-29; conditions: 48 hours exposure; for GI50: read-out: GI50 HT-29; for CC50: read-out: LC50 HT-29
# SK-MEL-28 = test: SRB colorimetric assay of cell growth and viability, SK-MEL-28; conditions: 48 hours exposure, SRB; for CC50: read-out: LC50 MEL-28
# HeLa-APL = test: SRB colorimetric assay of cell growth and viability, HeLa-APL; conditions: 48 hours exposure; for CC50: read-out: LC50 HELA-APL
# LoVo-Dox = test: SRB colorimetric assay of cell growth and viability, LoVo-Dox; conditions: 48 hours exposure; for CC50: read-out: LC50 LOVO-DOX
# How it was run: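 Here, cells grow drug-free for 18 h, then receive sample dilutions from 10 down to 10^−8 μg/mL for 48 h at 37° C. Protein-bound SRB is solubilized in Tris and quantified at 490 nm.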
# HeLa = test: SRB colorimetric assay of cell growth and viability, HeLa; conditions: 48 hours exposure; for CC50: read-out: LC50 HELA
# K-562 = test: SRB colorimetric assay of cell growth and viability, K-562; conditions: 48 hours exposure; for CC50: read-out: LC50 K-562
# PANC-1 = test: SRB colorimetric assay of cell growth and viability, PANC-1; conditions: 48 hours exposure; for CC50: read-out: LC50 PANC-1
smiles,measurement,setting,value
"C/C=C1\NC(=O)[C@H](Cc2ccccc2)NC(=O)[C@@H](C(C)C)NC(=O)[C@@H]([C@@H](C)CC)NC(=O)[C@H](NC(=O)[C@H](NC(=O)[C@H](CCCC[N+](C)(C)C)NC(=O)[C@H]2CCCN2C(=O)[C@H](NC(=O)[C@@H](NC(=O)[C@@H](NC(=O)[C@H](NC(=O)CC[C@@H](C)CC)C(C)C)[C@@H](C)O)C(C)C)C(C)C)[C@@H](C)CC)[C@@H](C)OC(=O)[C@H](C(C)C)NC1=O [Compound 93, [N^ε(Me)3-Lys^8, (4S)-MeHex^14]-KF]",GI50,IGROV-1,214 nM
same,LC50 (concentration causing 50% net cell killing),IGROV-1,866 nM
same,TGI IGROV,IGROV-1,3.90E−08 Molar
same,TGI A-549,A-549; SRB,6.97E−07 Molar
same,GI50,A-549; SRB,186 nM
same,CC50,A-549; SRB,2440 nM
same,GI50,DU-145,6.21 nM
same,LC50 (concentration causing 50% net cell kill),DU-145,44 nM
same,TGI DU-145,DU-145,1.66E−08 Molar
same,TGI LN-caP,LNCaP,2.16E−06 Molar
same,GI50,LNCaP,795 nM
same,CC50,LNCaP,5880 nM
same,GI50,LoVo; SRB,80.8 nM
same,TGI LOVO,LoVo; SRB,2.08E−07 Molar
same,CC50,LoVo; SRB,537 nM
same,GI50,IGROV-ET,266 nM
same,TGI IGROV-ET,IGROV-ET,7.17E−07 Molar
same,CC50,IGROV-ET,2490 nM
same,TGI HT-29,HT-29; SRB,2.72E−07 Molar
same,GI50,HT-29; SRB,168 nM
same,CC50,HT-29; SRB,439 nM
same,GI50,SK-MEL-28,320 nM
same,TGI MEL-28,SK-MEL-28,9.51E−07 Molar
same,CC50,SK-MEL-28,2600 nM
same,GI50,HeLa-APL; SRB,651 nM
same,TGI HELA-APL,HeLa-APL; SRB,1.43E−06 Molar
same,CC50,HeLa-APL; SRB,3150 nM
same,GI50,LoVo-Dox; SRB,78.2 nM
same,TGI LOVO-DOX,LoVo-Dox; SRB,1.82E−07 Molar
same,CC50,LoVo-Dox; SRB,426 nM
same,GI50,HeLa; SRB,491 nM
same,TGI HELA,HeLa; SRB,1.25E−06 Molar
same,CC50,HeLa; SRB,3250 nM
same,GI50,K-562; SRB,1490 nM
same,TGI K-562,K-562; SRB,2.72E−06 Molar
same,CC50,K-562; SRB,4940 nM
same,GI50,PANC-1; SRB,1110 nM
same,TGI PANC-1,PANC-1; SRB,2.08E−06 Molar
same,CC50,PANC-1; SRB,3900 nM
"C/C=C1\NC(=O)[C@H](Cc2ccccc2)NC(=O)[C@@H](C(C)C)NC(=O)[C@@H]([C@@H](C)CC)NC(=O)[C@H](NC(=O)[C@H](NC(=O)[C@H](CCCN)NC(=O)[C@H]2Cc3ccccc3CN2C(=O)[C@H](NC(=O)[C@@H](NC(=O)[C@@H](NC(=O)[C@H](NC(=O)CC[C@@H](C)CC)C(C)C)[C@@H](C)O)C(C)C)C(C)C)[C@@H](C)CC)[C@@H](C)OC(=O)[C@H](C(C)C)NC1=O [Compound 61, [D-Tic^9, (4S)-MeHex^14]-KF] ({Hexanoyl(4S-Me)}-[dV]TV[dV][dTic][Orn][d(aIle)][d(aThr)][d(aIle)][dV]F[Dhb]V; ester 8-C)",GI50,IGROV-1,1360 nM
same,LC50 (concentration causing 50% net cell killing),IGROV-1,5980 nM
same,TGI IGROV,IGROV-1,2.86E−06 Molar
same,TGI A-549,A-549; A-549,6.49E−06 Molar
same,GI50,A-549; A-549,2870 nM
same,CC50,A-549; A-549,≥ 6490 nM
same,GI50,DU-145,1720 nM
same,LC50 (concentration causing 50% net cell kill),DU-145,≥ 6490 nM
same,TGI DU-145,DU-145,4.24E−06 Molar
same,TGI LN-caP,LNCaP,2.40E−06 Molar
same,GI50,LNCaP,921 nM
same,CC50,LNCaP,6260 nM
same,GI50,LoVo; LOVO,1200 nM
same,TGI LOVO,LoVo; LOVO,2.65E−06 Molar
same,CC50,LoVo; LOVO,5830 nM
same,GI50,IGROV-ET,1440 nM
same,TGI IGROV-ET,IGROV-ET,3.30E−06 Molar
same,CC50,IGROV-ET,≥ 6490 nM
same,TGI HT-29,HT-29; HT-29,2.25E−06 Molar
same,GI50,HT-29; HT-29,1180 nM
same,CC50,HT-29; HT-29,4260 nM
same,GI50,SK-MEL-28,3790 nM
same,TGI MEL-28,SK-MEL-28,6.49E−06 Molar
same,CC50,SK-MEL-28,≥ 6490 nM
same,GI50,HeLa-APL; HELA-APL,4930 nM
same,TGI HELA-APL,HeLa-APL; HELA-APL,6.49E−06 Molar
same,CC50,HeLa-APL; HELA-APL,≥ 6490 nM
same,GI50,LoVo-Dox; LOVO-DOX,1170 nM
same,TGI LOVO-DOX,LoVo-Dox; LOVO-DOX,2.71E−06 Molar
same,CC50,LoVo-Dox; LOVO-DOX,6280 nM
same,GI50,HeLa; HELA,3480 nM
same,TGI HELA,HeLa; HELA,6.49E−06 Molar
same,CC50,HeLa; HELA,≥ 6490 nM
same,GI50,K-562; K-562,≥ 6490 nM
same,TGI K-562,K-562; K-562,6.49E−06 Molar
same,CC50,K-562; K-562,≥ 6490 nM
same,GI50,PANC-1; PANC-1,≥ 6490 nM
same,TGI PANC-1,PANC-1; PANC-1,6.49E−06 Molar
same,CC50,PANC-1; PANC-1,≥ 6490 nM
